As usually defined, the IC50 is the concentration that gives 50% inhibition.

What all share (assay type): biochemical
The target of experiment [1] is Pim-1 (Homo sapiens (Human), UniProt P11309). Description: Pim-1 kinase assay. The note with it: 1 mM ATP; read-out: Pim1 IC50. Here is the method:
Supplementation of the STOP buffer with beads and stopping the reactions were done under reduced light. Prior to the stopping reactions STOP buffer with beads was pre-incubated for 1 h in the dark at room temperature. After stopping the reactions, plates were incubated for 1 h in the dark at room temperature before reading on a PHERAstar FS plate reader (BMG Labtech) under reduced light.

The target of experiment [2] is Pim-2 (Homo sapiens (Human), UniProt Q9P1W9). Nature of the experiment: Pim-2 kinase assay. The note with it: 1 mM ATP; read-out: Pim2 IC50.
Experiment [3] concerns the target Pim-3 (Homo sapiens (Human), UniProt Q86V86). Description: Pim-3 kinase assay. As to conditions: 1 mM ATP; read-out: Pim3 IC50. An outline of the steps: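 AlphaScreen-type assay: […] Pim-3 phosphorylates 0.05 μM biotin-BAD peptide with 1 mM ATP, 1 h at 25 °C, pH 7.5 Tris buffer with MgCl2 and DTT. EDTA stop with phospho-BAD (Ser112) antibody and donor/acceptor beads, 1 h dark incubation before reading.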

Structures are written as SMILES.

Pim-2, sequence (Q9P1W9 whole entry): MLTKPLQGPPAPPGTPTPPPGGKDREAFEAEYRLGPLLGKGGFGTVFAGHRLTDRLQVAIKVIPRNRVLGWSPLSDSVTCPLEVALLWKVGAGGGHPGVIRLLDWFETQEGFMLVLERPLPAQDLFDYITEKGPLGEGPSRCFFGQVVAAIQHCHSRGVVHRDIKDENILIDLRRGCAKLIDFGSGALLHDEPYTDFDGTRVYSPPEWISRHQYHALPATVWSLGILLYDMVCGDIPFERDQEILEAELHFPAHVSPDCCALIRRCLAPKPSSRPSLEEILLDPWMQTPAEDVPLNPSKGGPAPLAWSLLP
Pim-1, sequence (P11309 whole entry): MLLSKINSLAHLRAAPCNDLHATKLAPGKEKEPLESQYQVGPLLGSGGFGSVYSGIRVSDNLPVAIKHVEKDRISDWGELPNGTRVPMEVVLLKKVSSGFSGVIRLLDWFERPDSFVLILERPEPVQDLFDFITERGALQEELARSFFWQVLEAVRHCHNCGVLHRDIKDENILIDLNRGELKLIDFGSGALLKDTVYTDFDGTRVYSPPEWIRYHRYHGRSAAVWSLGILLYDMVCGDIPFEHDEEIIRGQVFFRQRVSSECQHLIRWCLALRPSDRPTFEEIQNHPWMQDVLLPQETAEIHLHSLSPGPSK

For `COc1ccc(F)c(-c2nc(C(=O)Nc3cnc4c(c3N3C[C@H](C)C[C@H](N)C3)CCC4O)ccc2F)c1F` (single isomer, unassigned) [56 (Diastereoisomer 1)], the IC50 in experiment [1], in experiment [2] and in experiment [3] was at most 100 nM each time.

As for `Nc1sc(-c2c(F)cccc2F)nc1C(=O)Nc1cnc2c(c1N1CCC[C@H](N)C1)CCC2=O` [Example 20, 5-Amino-N-{4-[(3S)-3-aminopiperidin-1-yl]-7-oxo-6,7-dihydro-5H-cyclopenta[b]pyridin-3-yl}-2-(2,6-difluorophenyl)-1,3-thiazole-4-carboxamide], the IC50 in experiment [1], in experiment [2] and in experiment [3] was at most 100 nM throughout.

`N[C@H]1C[C@@H](C(F)(F)F)CN(c2c(NC(=O)c3ccc(F)c(-c4c(F)cccc4F)n3)cnc3c2CCO3)C1` [Example 43, N-{4-[(3S,5R)-3-amino-5-(trifluoromethyl)piperidin-1-yl]-2,3-dihydrofuro[2,3-b]pyridin-5-yl}-6-(2,6-difluorophenyl)-5-fluoropyridine-2-carboxamide]: the IC50 in experiment [1], in experiment [2] and in experiment [3] was at most 100 nM throughout.

Take `Nc1sc(-c2c(F)cccc2F)nc1C(=O)Nc1cnc2c(c1N1CCC[C@H](N)C1)CCC2O` (single isomer, unassigned) [15 (Diastereoisomer 1)]: the IC50 in experiment [1], in experiment [2] and in experiment [3] was at most 100 nM in each case.

`C[C@H]1CN(c2c(NC(=O)c3ccc(F)c(-c4c(F)cccc4F)n3)cnc3c2CCC3O)C[C@@H](N)[C@@H]1O` (single isomer, unassigned) [37 (Diastereoisomer 2)]: the IC50 in experiment [1], in experiment [2] and in experiment [3] was at most 100 nM each time.

In the case of `C[C@@H]1C[C@H](N)CN(c2c(NC(=O)c3nc(-c4c(F)cccc4F)c(F)cc3N)cnc3c2CCC3O)C1` (single isomer, unassigned) [46 (Diastereoisomer 2)], the IC50 in experiment [1], in experiment [2] and in experiment [3] was at most 100 nM each time.

On to `C[C@@H]1C[C@H](N)CN(c2c(NC(=O)c3ccc(F)c(-c4c(F)cc(OC5CCCOC5)cc4F)n3)cnc3c2CCC3O)C1` (single isomer, unassigned) [70 (Diastereoisomer 1)], for which the IC50 in experiment [1], in experiment [2] and in experiment [3] was at most 100 nM in each case.

For the compound `COCc1cc(F)c(-c2nc(C(=O)Nc3cnc4c(c3N3C[C@H](C)C[C@H](N)C3)CCC4O)ccc2F)c(F)c1` (single isomer, unassigned) [64 (Diastereoisomer 1)], the IC50 in experiment [1], in experiment [2] and in experiment [3] was at most 100 nM each time.

With `CC1(O)CCc2c1ncc(NC(=O)c1nc(-c3c(F)cccc3F)sc1N)c2N1CCC[C@H](N)C1` (single isomer, unassigned) [19 (Diastereoisomer 2)], the IC50 is at most 100 nM in experiment [1], 100 to 1000 nM in experiment [2] and at most 100 nM in experiment [3].

For the compound `N[C@H]1CCCN(c2c(NC(=O)c3csc(-c4c(F)cccc4F)n3)cnc3sccc23)C1` [Example 4, N-{4-[(3S)-3-Aminopiperidin-1-yl]thieno[2,3-b]pyridin-5-yl}-2-(2,6-difluorophenyl)-1,3-thiazole-4-carboxamide], the IC50 in experiment [1] is at most 100 nM; in experiment [2], over 2000 nM; in experiment [3], at most 100 nM.

`N[C@H]1CCCN(c2c(NC(=O)c3ccc(F)c(-c4c(F)cccc4F)n3)cnc3c2CCC3=O)C1` [Example 50, N-{4-[(3S)-3-Aminopiperidin-1-yl]-7-oxo-6,7-dihydro-5H-cyclopenta[b]pyridin-3-yl}-6-(2,6-difluorophenyl)-5-fluoropyridine-2-carboxamide]: the IC50 in experiment [1] is at most 100 nM; in experiment [2] it was 100 to 1000 nM; in experiment [3], at most 100 nM.

In the case of `CSc1cc(F)c(-c2nc(C(=O)Nc3cnc4c(c3N3CCC[C@H](N)C3)CCC4O)ccc2F)c(F)c1` (single isomer, unassigned) [58 (Diastereoisomer 1)], the values for the IC50 in experiment [1], in experiment [2] and in experiment [3] were at most 100 nM, 100 to 1000 nM and at most 100 nM, respectively.

In the case of `N[C@H]1CCCN(c2c(NC(=O)c3csc(-c4c(F)cccc4F)n3)cnc3c2CCC3O)C1` (single isomer, unassigned) [16 (Diastereoisomer 2)], the IC50 is at most 100 nM in experiment [1], over 2000 nM in experiment [2] and at most 100 nM in experiment [3].

For `Nc1sc(-c2c(F)cccc2F)nc1C(=O)Nc1cnc2ccccc2c1N1CCC[C@H](N)C1` [Example 1, 5-Amino-N-{4-[(3S)-3-aminopiperidin-1-yl]quinolin-3-yl}-2-(2,6-difluorophenyl)-1,3-thiazole-4-carboxamide], the IC50 in experiment [1] was at most 100 nM; in experiment [2], 277 nM; in experiment [3], at most 100 nM.

`COCc1cc(F)c(-c2nc(C(=O)Nc3cnc4c(c3N3C[C@H](C)C[C@H](N)C3)CCC4O)ccc2F)c(F)c1` (single isomer, unassigned) [64 (Diastereoisomer 2)]: the IC50 in experiment [1], in experiment [2] and in experiment [3] was at most 100 nM each time.

Turning to `COc1ccc(F)c(-c2nc(C(=O)Nc3cnc4c(c3N3C[C@@H](N)[C@H](O)[C@@H](C)C3)CCO4)ccc2F)c1F` [Example 74, N-{4-[(3R,4R,5S)-3-Amino-4-hydroxy-5-methylpiperidin-1-yl]-2,3-dihydrofuro[2,3-b]pyridin-5-yl}-6-(2,6-difluoro-3-methoxyphenyl)-5-fluoropyridine-2-carboxamide], the IC50 in experiment [1], in experiment [2] and in experiment [3] was at most 100 nM in each case.

Consider `Nc1sc(-c2c(F)cccc2F)nc1C(=O)Nc1cnc2[nH]ncc2c1N1CCC[C@H](N)C1` [Example 34, 5-Amino-N-{4-[(3S)-3-aminopiperidin-1-yl]-1H-pyrazolo[3,4-b]pyridin-5-yl}-2-(2,6-difluorophenyl)-1,3-thiazole-4-carboxamide], for which the IC50 in experiment [1] was at most 100 nM; in experiment [2] it was over 2000 nM; in experiment [3], at most 100 nM.

In the case of `C[C@H]1CN(c2c(NC(=O)c3ccc(F)c(-c4c(F)cccc4F)n3)cnc3c2CCC3O)C[C@@H](N)C1(C)O` (single isomer, unassigned) [63 (Diastereoisomer 3)], the IC50 in experiment [1], in experiment [2] and in experiment [3] was at most 100 nM each time.

As for `CC(C)(O)c1cc(F)c(-c2nc(C(=O)Nc3cnc4c(c3N3C[C@@H](N)C[C@@H](C(F)(F)F)C3)CCC4O)ccc2F)c(F)c1` (single isomer, unassigned) [72 (Diastereoisomer 1)], the IC50 in experiment [1], in experiment [2] and in experiment [3] was at most 100 nM throughout.

With `N[C@H]1CCCN(c2c(NC(=O)c3csc(-c4c(F)cccc4F)n3)cnc3ccsc23)C1` [Example 6, N-{7-[(3S)-3-Aminopiperidin-1-yl]thieno[3,2-b]pyridin-6-yl}-2-(2,6-difluorophenyl)-1,3-thiazole-4-carboxamide], the IC50 in experiment [1] is at most 100 nM; in experiment [2], over 2000 nM; in experiment [3], at most 100 nM.

(Values after patent US10265307B2, “Thiazolecarboxamides and pyridinecarboxamide compounds useful as Pim kinase inhibitors” (Incyte Corporation, priority 2013, dated 2019).)
